Laboratory results taken from article PMC8325119, “A Novel Class of Functionalized Synthetic Fluoroquinolones with Dual Antiproliferative - Antimicrobial Capacities” (Asian Pacific Journal of Cancer Prevention : APJCP, 2021).
In brackets after ≈: the same amount, converted by molar mass. Several values for one entry are separate records, joined by “and”; a condition that tells them apart may be missing. Equal values may be shown once. Read-outs that look alike come from different tables or passages of the source.

How the values were obtained:
A549 cell line = assay: SRB cytotoxicity assay, A549 lung cancer cell line; conditions: Homo sapiens, A549, 72 h, read-out: Cytotoxicity IC50 value, A549 cell line
A375.S2 cell line = assay: SRB cytotoxicity assay, A375.S2 melanoma cell line; conditions: Homo sapiens, A375-S2, 72 h, read-out: Cytotoxicity IC50 value, A375.S2 cell line
MCF7 cell line = assay: SRB cytotoxicity assay, MCF7 breast cancer cell line; conditions: Homo sapiens, MCF7, 72 h, read-out: Cytotoxicity IC50 value, MCF7 cell line
HELA cell line = assay: SRB cytotoxicity assay, HELA cervical cancer cell line; conditions: Homo sapiens, HeLa, 72 h
K562 cell line = assay: SRB cytotoxicity assay, K562 leukaemia cell line; conditions: Homo sapiens, K562, 72 h
PANC 1 cell line = assay: SRB cytotoxicity assay, PANC 1 pancreatic cancer cell line; conditions: Homo sapiens, PANC-1, 72 h, read-out: Cytotoxicity IC50 value, PANC 1 cell line
T47D cell line = assay: cells; conditions: Homo sapiens, T47D, 72 h, read-out: Cytotoxicity IC50 value, T47D cell line
In short: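 Cells were cultured in DMEM supplemented with FBS, HEPES buffer, L-glutamine and antibiotics, then exposed to compounds. Viability loss was read by SRB staining to give IC50.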

PDL Fibroblasts = assay: SRB cytotoxicity on normal periodontal ligament fibroblasts, selective cytotoxicity; assay type: cell-based, Human; conditions: for IC50: Homo sapiens, Fibroblast, normal fibroblasts, SRB, 72 h, mean ± SD
In short: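 Human periodontal ligament fibroblasts, a primary normal culture, tested by SRB colorimetric assay for cell viability. Selectivity ratio = IC50 on normal fibroblasts divided by IC50 on the pathological cell line.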

[1] = system: Staphylococcus aureus (S. aureus) ATCC 6538; assay: Quantitative antimicrobial assessment (MIC) against S. aureus; assay type: cell-based
[2] = system: Candida albicans (C. albicans) ATCC 1023; assay: Quantitative antimycotic assessment (MIC) against C. albicans; assay type: cell-based; conditions: in words
HCT116 = system: HCT116; parameters: method as in earlier work; conditions: colon cancer cells, Figure 1; ref Arabiyat et al. 2016a,b; 2017; Alabsi et al. 2018; Jumah 2018; AlShahrabi et al., 2020; read-out: IC50 against HCT116; cited from earlier work
SW620 = system: SW620; parameters: method as in earlier work; conditions: colon cancer cells, Figure 1; ref Arabiyat et al. 2016a,b; 2017; Alabsi et al. 2018; Jumah 2018; AlShahrabi et al., 2020; read-out: IC50 against SW620; cited from earlier work

CCCCc1ccc(Nc2c(F)cc3c(=O)c(C(=O)O)cn(C4CC4)c3c2N)cc1 [4e, 8-Amino-1-cyclopropyl-6-fluoro-7-(4-butyl-phenylamino)-4-oxo-1,4-dihydro-quinoline-3-carboxylic acid]
IC50 (A549 cell line): 25.1 µM and 10.3 µg/mL | IC50 (A375.S2 cell line): 79.2 µM and 32.4 µg/mL | IC50 (MCF7 cell line): 107 µM and 44 µg/mL | IC50 (HELA cell line; read-out: Cytotoxicity IC50 value, HELA cell line, SRB, 72 h, 0.1-200 μg/mL range, mean ± SD, value in brackets): 27.6 µg/mL | IC50 (HELA cell line; read-out: Cytotoxicity IC50 value, HELA cell line, SRB, 72 h, 0.1-200 μg/mL range, mean ± SD, NI = lack of cytotoxicity in range): 67.3 ± 6.64 µM | IC50 (K562 cell line; read-out: Cytotoxicity IC50 value, K562 cell line, SRB, 72 h, 0.1-200 μg/mL range, mean ± SD, value in brackets): 0.002 µg/mL | IC50 (K562 cell line; read-out: Cytotoxicity IC50 value, K562 cell line, SRB, 72 h, 0.1-200 μg/mL range, mean ± SD, NI = lack of cytotoxicity in range): 0.005 ± 0.0009 µM | IC50 (PANC 1 cell line): 20.8 µM and 8.5 µg/mL | IC50 (T47D cell line): 44.1 µM and 18 µg/mL | IC50 (PDL Fibroblasts; 0.1-200 μg/mL range, NI = lack of cytotoxicity in range): 43 ± 3.02 µM | IC50 (PDL Fibroblasts; value in brackets): 18.9 µg/mL | Selectivity index SI (K562) (PDL Fibroblasts; IC50 on PDL fibroblasts divided by IC50 on K562): 8592 | MIC ([1]; Staphylococcus aureus, ATCC6538, Gram positive, ATCC 6538): 0.32 µM (≈ 0.131 µg/mL) | MIC potency compared with ciprofloxacin, S. aureus ([1]; in words): significantly more potent than ciprofloxacin | Antimycotic MIC potency compared with fluconazole, C. albicans [2]: more potent than antimycotic flucanozole

CCn1cc(C(=O)O)c(=O)c2cc(F)c(Nc3ccc(Cl)cc3)c(N)c21 [A (X =Cl)]
IC50 (HCT116): 3.5 µM | IC50 (SW620): 11.7 µM
